# In US20250312499A1, “KISSPEPTIN RECEPTOR (KISS1R) TARGETED THERAPEUTICS AND USES THEREOF” (priority 2024, published 2025):
# Numbered stars: 1 amine (or outer) side, 2 acyl side, 3 side chain; on linkers, the order of the positions; unused ones are H or OH. Square brackets hold non-standard residues; d marks the D form. Peptide text beside a SMILES is read from it. * marks the point of attachment. DOTA = O=C(O)CN1CCN(CC(=O)O)CCN(CC(=O)*)CCN(CC(=O)O)CC1; Gly(N-(3-F-4-Me-benzyl)) = Cc1ccc(CNCC(=O)*)cc1F; Butanoyl(4-(4-I-phenyl)) = O=C(CCCc1ccc(I)cc1)*; Butanoyl(4-(4-MePh)) = Cc1ccc(CCCC(=O)*)cc1; Api(1-amidino) = N=C(N)N1CCC(N)(C(=O)O)CC1; Hydrocinnamoyl(4-Me) = Cc1ccc(CCC(=O)*)cc1; Bip = N[C@@H](Cc1ccc(-c2ccccc2)cc1)C(=O)O; 2Nal = N[C@@H](Cc1ccc2ccccc2c1)C(=O)O; d2Nal = N[C@H](Cc1ccc2ccccc2c1)C(=O)O; X1 = O=C(CN1CCC(N[*:1])CC1)[*:2]; 4Amb = NCc1ccc(C(=O)O)cc1; Api = NC1(C(=O)O)CCNCC1; PEG2 = NCCOCCOCCC(=O)O; AEEA = NCCOCCOCC(=O)O; Ahx = NCCCCCC(=O)O; azaGly = NNC(=O)O; Sar = CNCC(=O)O
# Molecular target: human kisspeptin receptor (Homo sapiens (Human), UniProt Q969F8)
# Test: Human KISS1R binding assay (membrane competition binding)
# Conditions: 90 min at room temperature; competition with 0.2 nM [125I]-metastin (45-54); Flp-In T-Rex 293 kisspeptin membranes; metal complexes nonradioactive Ga, In, Lu; read-out: hKiSSR Binding Ki (90 min)
# Outline: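 Radioligand competition: 0.2 nM [125I]-metastin (45-54) displaced by test ligand (usually 0–10,000 nM) over 90 min at room temperature, pH 7.4 buffer with 0.1% BSA. Receptor source is crude membrane (5–10 μg) from tetracycline-induced Flp-In T-Rex 293 cells. Bound label filtered and counted; Ki from non-linear regression.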
# Chain of human kisspeptin receptor (Q969F8 whole entry): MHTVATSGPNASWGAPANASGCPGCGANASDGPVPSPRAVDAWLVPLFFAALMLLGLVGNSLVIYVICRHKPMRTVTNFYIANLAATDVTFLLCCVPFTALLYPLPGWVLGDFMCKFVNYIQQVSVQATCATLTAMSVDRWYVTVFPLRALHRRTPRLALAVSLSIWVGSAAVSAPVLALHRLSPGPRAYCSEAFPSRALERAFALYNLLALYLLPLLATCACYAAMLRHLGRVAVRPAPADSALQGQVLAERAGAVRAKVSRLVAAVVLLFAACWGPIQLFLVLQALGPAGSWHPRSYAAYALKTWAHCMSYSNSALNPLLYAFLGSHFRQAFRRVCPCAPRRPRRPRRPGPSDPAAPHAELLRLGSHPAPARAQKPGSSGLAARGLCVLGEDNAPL
row,Compound,Ki [µM]
1,CC(=O)N[C@H](Cc1ccc(O)cc1)C(=O)N[C@H](Cc1c[nH]c2ccccc12)C(=O)N[C@@H](CC(N)=O)C(=O)N[C@H](C(=O)N[C@@H](Cc1ccccc1)C(=O)NNC(=O)N[C@@H](CC(C)C)C(=O)NC1(C(=O)N[C@@H](Cc2c[nH]c3ccccc23)C(N)=O)CCN(C(=O)CNCc2ccc(C)c(F)c2)CC1)[C@@H](C)O [Compound 390] (Ac-[dY][dW]NTF[azaGly]L[Api](Gly(N-(3-F-4-Me-benzyl)))W-NH2),< 0.01
2,CC(C)C[C@H](NC(=O)NNC(=O)[C@H](Cc1ccccc1)NC(=O)[C@@H](NC(=O)[C@H](CC(N)=O)NC(=O)[C@@H](Cc1ccc2ccccc2c1)NC(=O)[C@@H](Cc1ccc(O)cc1)NC(=O)[C@@H](CCCCNC(=O)CCCc1ccc(I)cc1)NC(=O)CCCCCNC(=O)CN1CCN(CC(=O)O)CCN(CC(=O)O)CCN(CC(=O)O)CC1)[C@@H](C)O)C(=O)NC1(C(=O)N[C@@H](Cc2c[nH]c3ccccc23)C(N)=O)CCN(C(=N)N)CC1 [Compound 336] ({DOTA-Ahx}-[dK](Butanoyl(4-(4-I-phenyl)))[dY][d2Nal]NTF[azaGly]L[Api(1-amidino)]W-NH2),< 0.01
3,Cc1ccc(CNCC(=O)N2CCC(NC(=O)[C@@H](CC(C)C)SCCNC(=O)[C@H](Cc3ccccc3)NC(=O)CCCCCNC(=O)CN3CCN(CC(=O)O)CCN(CC(=O)O)CCN(CC(=O)O)CC3)(C(=O)N[C@@H](Cc3c[nH]c4ccccc34)C(N)=O)CC2)cc1F [Compound 137],< 0.01
4,Cc1ccc(CNCC(=O)N2CCC(NC(=O)[C@H](CC(C)C)NC(=O)NNC(=O)[C@H](Cc3ccccc3)NC(=O)[C@@H](NC(=O)[C@H](CC(N)=O)NC(=O)[C@@H](Cc3c[nH]c4ccccc34)NC(=O)[C@H](Cc3ccc(O)cc3)NC(=O)CNC(=O)CN3CCN(CC(=O)O)CCN(CC(=O)O)CCN(CC(=O)O)CC3)[C@@H](C)O)(C(=O)N[C@@H](Cc3c[nH]c4ccccc34)C(N)=O)CC2)cc1F [Compound 151] ({DOTA}-GY[dW]NTF[azaGly]L[Api](Gly(N-(3-F-4-Me-benzyl)))W-NH2),< 0.01
5,CNCC(=O)N1CCC(NC(=O)[C@H](CC(C)C)NC(=O)NNC(=O)[C@H](Cc2ccccc2)NC(=O)[C@@H](NC(=O)[C@H](CC(N)=O)NC(=O)[C@@H](Cc2ccc3ccccc3c2)NC(=O)[C@@H](Cc2ccc(O)cc2)NC(C)=O)[C@@H](C)O)(C(=O)N[C@@H](Cc2c[nH]c3ccccc23)C(N)=O)CC1 [Compound 393] (Ac-[dY][d2Nal]NTF[azaGly]L[Api](Sar)W-NH2),< 0.01
6,CC(C)C[C@H](NC(=O)NNC(=O)[C@H](Cc1ccc(-c2ccccc2)cc1)NC(=O)[C@@H](NC(=O)[C@H](CC(N)=O)NC(=O)[C@@H](Cc1c[nH]c2ccccc12)NC(=O)[C@@H](Cc1ccc(O)cc1)NC(=O)CCCCCNC(=O)CN1CCN(CC(=O)O)CCN(CC(=O)O)CCN(CC(=O)O)CC1)[C@@H](C)O)C(=O)NC1(C(=O)N[C@@H](Cc2c[nH]c3ccccc23)C(N)=O)CCN(C(=N)N)CC1 [Compound 271] ({DOTA-Ahx}-[dY][dW]NT[Bip][azaGly]L[Api(1-amidino)]W-NH2),0.01 to 0.1
7,Cc1ccc(CNCC(=O)N2CCC(NC(=O)[C@H](CC(C)C)NC(=O)NNC(=O)[C@H](Cc3ccccc3)NC(=O)[C@@H](NC(=O)[C@H](CC(N)=O)NC(=O)[C@@H](Cc3c[nH]c4ccccc34)NC(=O)[C@@H](Cc3c[nH]cn3)NC(=O)[C@@H](Cc3ccc(O)cc3)NC(=O)CN3CCC(NC(=O)CN4CCN(CC(=O)O)CCN(CC(=O)O)CCN(CC(=O)O)CC4)CC3)[C@@H](C)O)(C(=O)N[C@@H](Cc3c[nH]c4ccccc34)C(N)=O)CC2)cc1F [Compound 33] ({DOTA}-[X1][dY][dH][dW]NTF[azaGly]L[Api](Gly(N-(3-F-4-Me-benzyl)))W-NH2),< 0.01
8,Cc1ccc(CNCC(=O)N2CCC(NC(=O)[C@H](CC(C)C)NC(=O)NNC(=O)[C@H](Cc3ccccc3)NC(=O)[C@@H](NC(=O)[C@H](CC(N)=O)NC(=O)[C@H](Cc3ccc4ccccc4c3)NC(=O)[C@@H](Cc3ccc(O)cc3)NC(=O)COCCOCCNC(=O)CN3CCN(CC(=O)O)CCN(CC(=O)O)CCN(CC(=O)O)CC3)[C@@H](C)O)(C(=O)N[C@@H](Cc3c[nH]c4ccccc34)C(N)=O)CC2)cc1F [Compound 58] ({DOTA-AEEA}-[dY][2Nal]NTF[azaGly]L[Api](Gly(N-(3-F-4-Me-benzyl)))W-NH2),< 0.01
9,Cc1ccc(CCCC(=O)N[C@H](Cc2ccc(O)cc2)C(=O)N[C@H](Cc2c[nH]c3ccccc23)C(=O)N[C@@H](CC(N)=O)C(=O)N[C@H](C(=O)N[C@@H](Cc2ccccc2)C(=O)NNC(=O)N[C@@H](CC(C)C)C(=O)NC2(C(=O)N[C@@H](Cc3c[nH]c4ccccc34)C(N)=O)CCN(C(=O)CNCc3ccc(C)c(F)c3)CC2)[C@@H](C)O)cc1 [Compound 403] ({Butanoyl(4-(4-MePh))}-[dY][dW]NTF[azaGly]L[Api](Gly(N-(3-F-4-Me-benzyl)))W-NH2),< 0.01
10,Cc1ccc(CNCC(=O)N2CCC(NC(=O)[C@H](CC(C)C)NC(=O)NNC(=O)[C@H](Cc3ccccc3)NC(=O)c3ccc(CNC(=O)CN4CCN(CC(=O)O)CCN(CC(=O)O)CCN(CC(=O)O)CC4)cc3)(C(=O)N[C@@H](Cc3c[nH]c4ccccc34)C(N)=O)CC2)cc1F [Compound 109] ({DOTA-4Amb}-F[azaGly]L[Api](Gly(N-(3-F-4-Me-benzyl)))W-NH2),< 0.01

# The next lines start with the values.
row,Ki [µM],Compound
1,< 0.01,Cc1ccc(CNCC(=O)N2CCC(NC(=O)[C@H](CC(C)C)NC(=O)NNC(=O)[C@H](Cc3ccccc3)NC(=O)[C@@H](NC(=O)[C@H](CC(N)=O)NC(=O)CN3CCC(NC(=O)CN4CCN(CC(=O)O)CCN(CC(=O)O)CCN(CC(=O)O)CC4)CC3)[C@@H](C)O)(C(=O)N[C@@H](Cc3ccc(O)cc3)C(N)=O)CC2)cc1F [Compound 249] ({DOTA}-[X1]NTF[azaGly]L[Api](Gly(N-(3-F-4-Me-benzyl)))Y-NH2)
2,< 0.01,CC(C)C[C@H](NC(=O)NNC(=O)[C@H](Cc1ccccc1)NC(=O)[C@@H](NC(=O)[C@H](CC(N)=O)NC(=O)[C@@H](Cc1ccc2ccccc2c1)NC(=O)CN1CCN(CC(=O)O)CCN(CC(=O)O)CCN(CC(=O)O)CC1)[C@@H](C)O)C(=O)NC1(C(=O)N[C@@H](Cc2ccccc2)C(N)=O)CCN(C(=N)N)CC1 [Compound 302] ({DOTA}-[d2Nal]NTF[azaGly]L[Api(1-amidino)]F-NH2)
3,0.01 to 0.1,Cc1ccc(CNCC(=O)N2CCC(NC(=O)[C@H](CC(C)C)NC(=O)NNC(=O)[C@H](Cc3ccccc3)NC(=O)[C@@H](CC(N)=O)NC(=O)[C@@H](CC(N)=O)NC(=O)CN3CCN(CC(=O)O)CCN(CC(=O)O)CCN(CC(=O)O)CC3)(C(=O)N[C@@H](Cc3c[nH]c4ccccc34)C(N)=O)CC2)cc1F [Compound 18] ({DOTA}-[dN][dN]F[azaGly]L[Api](Gly(N-(3-F-4-Me-benzyl)))W-NH2)
4,< 0.01,Cc1ccc(CCC(=O)NCCOCCOCCC(=O)N[C@H](Cc2ccc(O)cc2)C(=O)N[C@@H](CCCCNC(=O)CN2CCN(CC(=O)O)CCN(CC(=O)O)CCN(CC(=O)O)CC2)C(=O)N[C@@H](CC(N)=O)C(=O)N[C@H](C(=O)N[C@@H](Cc2ccccc2)C(=O)NNC(=O)N[C@@H](CC(C)C)C(=O)NC2(C(=O)N[C@@H](Cc3ccccc3)C(N)=O)CCN(C(=N)N)CC2)[C@@H](C)O)cc1 [Compound 322] ({Hydrocinnamoyl(4-Me)-PEG2}-[dY]K(DOTA)NTF[azaGly]L[Api(1-amidino)]F-NH2)
